#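 Tested at 5 concentrations; 48 h exposure; 96-well plates; endpoints linearly interpolated, else capped at highest concentration. At the TGI there is no net growth.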
# How the values were obtained:
# Test in all cases: NCI anticancer screen, dose series, 48 h
# [1] = tested on: UACC-62 melanoma
# [2] = tested on: DMS 114 small cell lung
# [3] = tested on: UO-31 renal
# [4] = tested on: OVCAR-4 ovarian
# [5] = tested on: HOP-62 NSCLC
# [6] = tested on: NCI-H522 lung
# [7] = tested on: SN12C renal
# [8] = tested on: MALME-3M melanoma
# [9] = tested on: KM12 colon
# [10] = tested on: HOP-18 NSCLC
# [11] = tested on: LOX IMVI melanoma
# [12] = tested on: SK-MEL-2 melanoma
# [13] = tested on: M19-MEL melanoma
# [14] = tested on: NCI-H23 lung
# [15] = tested on: COLO 205 colon
# [16] = tested on: SF-268 CNS
# [17] = tested on: SK-MEL-5 melanoma
# [18] = tested on: M14 melanoma
# [19] = tested on: RPMI-8226 leukemia
# [20] = tested on: XF 498 CNS
# [21] = tested on: UACC-257 melanoma
# [22] = tested on: ACHN renal
# [23] = tested on: HT29 colon
# [24] = tested on: HCT-15 colon
# [25] = tested on: HCC-2998 colon
# [26] = tested on: SR leukemia
# [27] = tested on: DMS 273 small cell lung
# [28] = tested on: CCRF-CEM leukemia
# [29] = tested on: OVCAR-8 ovarian
# [30] = tested on: NCI-H460 lung
# [31] = tested on: A498 renal
# [32] = tested on: HL-60(TB) leukemia
# [33] = tested on: OVCAR-5 ovarian
# [34] = tested on: KM20L2 colon
# [35] = tested on: SK-OV-3 ovarian
# [36] = tested on: HCT-116 colon
# [37] = tested on: SF-295 CNS
# [38] = tested on: LXFL 529 NSCLC
# [39] = tested on: MOLT-4 leukemia
# [40] = tested on: NCI-H226 lung
# [41] = tested on: A549 NSCLC
# [42] = tested on: OVCAR-3 ovarian
# [43] = tested on: TK-10 renal
# [44] = tested on: CAKI-1 renal
# [45] = tested on: 786-0 renal
# [46] = tested on: SF-539 CNS
# [47] = tested on: U251 CNS
# [48] = tested on: EKVX NSCLC
# [49] = tested on: K-562 leukemia
# [50] = tested on: IGROV1 ovarian
# [51] = tested on: SNB-75 CNS
# [52] = tested on: DLD-1 colon
# [53] = tested on: SW-620 colon
# [54] = tested on: SNB-78 CNS
# [55] = tested on: SNB-19 CNS
# [56] = tested on: RXF-631 renal
# [57] = tested on: SK-MEL-28 melanoma
# [58] = tested on: HOP-92 NSCLC
# [59] = tested on: RXF 393 renal
smiles,measurement,setting,value
N=S(c1ccccc1)c1ccccc1[N+](=O)[O-] (stereo not given),TGI,[1],36.2 µM
same,TGI,[2],32.7 µM
same,TGI,[3],29.5 µM
same,TGI,[4],28.4 µM
same,TGI,[5],52.6 µM
same,TGI,[6],11.7 µM
same,TGI,[7],29.2 µM
same,TGI,[8],30.1 µM
same,TGI,[9],32.7 µM
same,TGI,[10],> 100 µM
same,TGI,[11],28.2 µM
same,TGI,[12],67.7 µM
same,TGI,[13],29.7 µM
same,TGI,[14],35.2 µM
same,TGI,[15],34 µM
same,TGI,[16],42.1 µM
same,TGI,[17],28.5 µM
same,TGI,[18],27.7 µM
same,TGI,[19],54.6 µM
same,TGI,[20],19.6 µM
same,TGI,[21],32.2 µM
same,TGI,[22],31 µM
same,TGI,[23],38.7 µM
same,TGI,[24],30.4 µM
same,TGI,[25],33.4 µM
same,TGI,[26],50.1 µM
same,TGI,[27],34.4 µM
same,TGI,[28],43.4 µM
same,TGI,[29],51.5 µM
same,TGI,[30],51 µM
same,TGI,[31],> 100 µM
same,TGI,[32],36.5 µM
same,TGI,[33],34.7 µM
same,TGI,[34],41.5 µM
same,TGI,[35],84.6 µM
same,TGI,[36],31.6 µM
same,TGI,[37],36.7 µM
same,TGI,[38],30.9 µM
same,TGI,[39],64.3 µM
same,TGI,[40],25.4 µM
same,TGI,[41],32.1 µM
same,TGI,[42],23.2 µM
same,TGI,[43],34.8 µM
same,TGI,[44],28.8 µM
same,TGI,[45],30.3 µM
same,TGI,[46],37.8 µM
same,TGI,[47],31.2 µM
same,TGI,[48],38.5 µM
same,TGI,[49],45 µM
same,TGI,[50],32.9 µM
same,TGI,[51],95.1 µM
same,TGI,[52],46 µM
same,TGI,[53],31.4 µM
same,TGI,[54],> 100 µM
same,TGI,[55],35.2 µM
CC(C)c1ccccc1NC(=O)/C(Cl)=C1/Sc2ccccc2NC1=O,TGI,[1],> 100 µM
same,TGI,[2],53.4 µM
same,TGI,[3],> 100 µM
same,TGI,[4],> 100 µM
same,TGI,[5],> 100 µM
same,TGI,[6],51.8 µM
same,TGI,[7],> 100 µM
same,TGI,[8],80.7 µM
same,TGI,[11],> 100 µM
same,TGI,[12],37.8 µM
same,TGI,[13],> 100 µM
same,TGI,[14],70.8 µM
same,TGI,[15],74.6 µM
same,TGI,[16],> 100 µM
same,TGI,[17],78.8 µM
same,TGI,[18],> 100 µM
same,TGI,[19],58.8 µM
same,TGI,[56],> 100 µM
same,TGI,[22],> 100 µM
same,TGI,[24],> 100 µM
same,TGI,[25],93.3 µM
same,TGI,[28],82.8 µM
same,TGI,[29],> 100 µM
same,TGI,[30],> 100 µM
same,TGI,[31],93.2 µM
same,TGI,[32],52.6 µM
same,TGI,[33],> 100 µM
same,TGI,[34],59.7 µM
same,TGI,[35],66.6 µM
same,TGI,[36],> 100 µM
same,TGI,[38],> 100 µM
same,TGI,[57],> 100 µM
same,TGI,[39],79.8 µM
same,TGI,[40],> 100 µM
same,TGI,[41],> 100 µM
same,TGI,[43],> 100 µM
same,TGI,[44],> 100 µM
same,TGI,[58],> 100 µM
same,TGI,[45],> 100 µM
same,TGI,[46],57.7 µM
same,TGI,[47],> 100 µM
same,TGI,[48],> 100 µM
same,TGI,[49],> 100 µM
same,TGI,[50],> 100 µM
same,TGI,[51],87.9 µM
same,TGI,[52],> 100 µM
same,TGI,[53],> 100 µM
same,TGI,[59],49.6 µM
same,TGI,[54],> 100 µM
same,TGI,[55],> 100 µM

# Source: PubChem BioAssay (NCI)
